Data: PMC7372189 (Frontiers in Pharmacology, 2020)
Where two headings read alike, the source gives them in different places.

Tests used:
[1] = biological target: T1, TRPV1 channel (Rattus norvegicus, UniProt O35433); assay: Two-electrode voltage clamp (TEVC) in Xenopus oocytes expressing TRPV1 channels; type: cell-based; details: for maximal effect (Ix/Icapsaicin): Imax relative to current in saturating capsaicin
T1 construct: expressed in transfected cells; host or cells: Xenopus laevis oocytes injected with in vitro transcribed TRPV1 cRNA

[2] = system: tactile allodynia induced by intra-plantar carrageenan; assay: Carrageenan model of inflammatory pain, tactile allodynia measured with von Frey filaments after topical application; type: in vivo, Sprague–Dawley rats; details: for Effect duration / Time of maximal analgesia / Time to first effect (first significant analgesic effect): after topical application; for Concentration at maximal analgesia / ED50 of maximal effect / Maximal percentage of analgesia attained: topical in cream; for ED50 of maximal effect: extrapolated from linear fit of %MPE at time of maximal analgesia; for Maximal percentage of analgesia attained: relative to cream (0%) and saline (100%) controls
Procedure: Male Sprague–Dawley rats (approximately 200–300 g body weight) were used. Food and water were supplied ad libitum and the animals were kept in a 12 h light–dark cycle in their home cages throughout the study. All procedures were in accordance with the U.S. National Institutes of Health guidelines and were approved by the bioethical Committee of the Universidad Andres Bello, Acta 11/2016.
2% λ-Carrageenan (Santa Cruz Biotechnology) was administered subcutaneously to induce tactile allodynia according to previous studies ([Yoshimura and Yonehara, 2001]; [Fehrenbacher et al., 2012]). Capsaicin was obtained from Sigma. Compounds 1, 2, and 3 were obtained from the National Cancer Institute. […] Novo base moisturizing cream (Charles Lasserre) was used as vehicle for all tested compounds including capsaicin and was used alone as vehicle control. The different concentrations used can be found in Table 3.
Rats were randomly assigned into the following groups for all compounds: EC50, 10-fold EC50, 100-fold EC50, 1,000-fold EC50, a control group treated with cream only and a control group for 2% λ-Carrageenan in which saline was injected instead of λ-Carrageenan.
The λ-Carrageenan model for inflammatory pain was used to induce mechanical allodynia lasting for less than 24 h, as reported elsewhere ([Yoshimura and Yonehara, 2001]; [Fehrenbacher et al., 2012]). In short, animals were injected with 100 µl of 2% λ-Carrageenan diluted in saline, or saline alone as vehicle control, into the left hind paw. One hour later, capsaicin or one of the three compounds dissolved in cream was administered on the plantar surface until fully absorbed using a cotton swab. Then the rat was placed in the test chamber and acclimated for 5 min.
The day before the experiments, tactile thresholds were measured in all animals to attain a baseline and to ensure normal sensitivity to tactile stimuli. On the day of the experiment, the cream that contained the compounds was applied only once, 5 min before the evaluation began, and the effects of each compound was measured over time, once per hour, for eight consecutive hours. Von Frey filaments were used to measure plantar mechanical sensitivity and inflammatory allodynia. Briefly, the rats were placed into the arena with a mesh floor and after the 5-min habituation, were tested using von Frey filaments. The following von Frey filaments were applied against the plantar surface: 52.2 g (512 mN), 26.1 g (256 mN), 13.0 g (128 mN), 6.52 g (64 mN), 3.26 g (32 mN). To measure tactile response, the up-down method was used ([Dixon, 1980]), with slight modifications: the starting filament (13.0 g) was applied perpendicularly to the plantar surface of the hind paw until it buckled for 3 s or until the rat withdrew its foot. If the rat responded to the filament, the procedure was repeated with the smaller filament (6.52 g) and then repeated sequentially until the smallest filament that elicits a response was identified. […] To confirm that the identified filament was the smallest that could elicit a response, the filament was changed to the next smaller filament with no response and then increased again to the filament that produced a response. The responses (X) and lack of responses (0) were recorded to obtain the tabular values from [Dixon (1980)], corresponding to:
Data from von Frey filaments was obtained as a dose–response curve for each compound over the course of 8 h. All groups were tested for normality and a two-way ANOVA with Bonferroni post hoc test was used to analyze differences. Differences were considered significant when p < 0.05 and averages are shown ± standard error of the mean (SE).
The paw withdrawal threshold (PWT) for each time point was calculated by using the following equation proposed by [Dixon, 1980]: […]

[3] = higher concentrations than 10xEC50

T1 sequence (O35433 whole entry): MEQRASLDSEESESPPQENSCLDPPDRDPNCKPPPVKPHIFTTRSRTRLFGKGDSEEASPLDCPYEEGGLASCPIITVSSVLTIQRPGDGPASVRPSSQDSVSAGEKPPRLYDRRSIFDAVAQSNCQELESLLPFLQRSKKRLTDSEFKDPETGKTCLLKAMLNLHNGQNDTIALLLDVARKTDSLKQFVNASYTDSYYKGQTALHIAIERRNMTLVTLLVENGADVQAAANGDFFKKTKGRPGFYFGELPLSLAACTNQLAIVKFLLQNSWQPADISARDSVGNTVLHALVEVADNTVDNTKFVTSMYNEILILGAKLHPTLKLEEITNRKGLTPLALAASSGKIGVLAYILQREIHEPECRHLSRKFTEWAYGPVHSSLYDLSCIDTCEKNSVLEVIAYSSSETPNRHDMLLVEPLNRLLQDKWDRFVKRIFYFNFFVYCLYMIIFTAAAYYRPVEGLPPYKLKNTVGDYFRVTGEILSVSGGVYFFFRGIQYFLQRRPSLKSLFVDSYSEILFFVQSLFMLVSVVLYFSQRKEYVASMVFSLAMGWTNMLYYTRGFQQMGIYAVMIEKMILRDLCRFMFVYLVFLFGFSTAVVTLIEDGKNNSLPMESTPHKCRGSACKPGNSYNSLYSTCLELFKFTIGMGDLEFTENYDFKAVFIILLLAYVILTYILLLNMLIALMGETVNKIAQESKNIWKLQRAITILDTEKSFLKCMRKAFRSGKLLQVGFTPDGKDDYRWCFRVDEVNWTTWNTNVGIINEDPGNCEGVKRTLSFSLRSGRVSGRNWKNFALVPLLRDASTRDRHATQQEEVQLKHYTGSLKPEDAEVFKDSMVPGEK

| Structure (SMILES) | Analgesic effect relative to vehicle, significance of tactile thresholds (von Frey) ([2]; Time 1 h, x1000 EC50) | Analgesic effect relative to vehicle, significance of tactile thresholds (von Frey) ([2]; Time 2 h, x100 EC50) | Analgesic effect relative to vehicle, significance of tactile thresholds (von Frey) ([2]; Time 2 h, x1000 EC50) | Analgesic effect relative to vehicle, significance of tactile thresholds (von Frey) ([2]; Time 3 h, x1000 EC50) | Analgesic effect relative to vehicle, significance of tactile thresholds (von Frey) ([2]; Time 4 h, x100 EC50) | Analgesic effect relative to vehicle, significance of tactile thresholds (von Frey) ([2]; Time 4 h, x1000 EC50) | Analgesic effect relative to vehicle, significance of tactile thresholds (von Frey) ([2]; Time 7 h, x100 EC50) | Analgesic effect relative to vehicle, significance of tactile thresholds (von Frey) ([2]; Time 7 h, x1000 EC50) | Analgesic effect relative to vehicle, significance of tactile thresholds (von Frey) ([2]; Time 8 h, x1000 EC50) | Effect duration [2] | Time of maximal analgesia [2] | Concentration at maximal analgesia [2] | ED50 of maximal effect [2] | Maximal percentage of analgesia attained [2] | maximal effect (Ix/Icapsaicin) [1] | EC50 ([1]; read-out: EC50) | Analgesic effect relative to vehicle, significance of tactile thresholds (von Frey) ([2]; Time 8 h, x100 EC50) | Analgesic effect relative to vehicle, significance of tactile thresholds (von Frey) ([2]; Time 9 h, x100 EC50) | Analgesic effect relative to vehicle, significance of tactile thresholds (von Frey) ([2]; Time 9 h, x1000 EC50) | Time to first effect (first significant analgesic effect) [2] | further results |
| --- | --- | --- | --- | --- | --- | --- | --- | --- | --- | --- | --- | --- | --- | --- | --- | --- | --- | --- | --- | --- | --- |
| C=C(C)[C@]12C[C@@H](C)[C@@]34O[C@](Cc5ccccc5)(O[C@@H]1[C@@H]3C=C(COC(=O)Cc1ccc(O)c(OC)c1)C[C@]1(O)C(=O)C(C)=C[C@@H]41)O2 [Resiniferatoxin, reference compound] | – | – | – | – | – | – | – | – | – | – | – | – | – | – | – | – | – | – | – | – | EC50 [1]: 0.7 nM |
| Cc1cccc(NC(=O)C2CCCN(C(=O)OCc3ccccc3)C2)c1 (stereo not drawn) [Compound 2] | *** (***p < 0.001) | * (*p < 0.05) | ** (**p < 0.01) | *** (***p < 0.001) | * (*p < 0.05) | * (*p < 0.05) | ** (**p < 0.01) | ** (**p < 0.01) | ** (**p < 0.01) | 3 h | 3 h | 53 µM | 6800 nM | 100% | 0.73 | 53 ± 4.3 nM | – | – | – | – | Time of first significant analgesic effect compared to vehicle ([2]; 100xEC50): 2 h; Duration of significant analgesic effect ([2]; higher concentrations than 100xEC50): 3 h |
| COc1ccc(C(=O)NNC(=O)CSc2nnc(-c3ccc(C)cc3)n2C)cc1 [Compound 3] | – | – | – | – | – | – | – | * (*p < 0.05) | * (*p < 0.05) | 2 h | 7 h | 92 µM | 139300 nM | 75% | 0.89 | 92 ± 10 nM | * (*p < 0.05) | * (*p < 0.05) | * (*p < 0.05) | Hour 7 h | Time to first effect (first significant analgesic effect) ([2]; listed as compound 3): 7 h |
| COc1cc(CNC(=O)CCCC/C=C/C(C)C)ccc1O [Capsaicin, reference compound] | – | – | – | – | – | – | – | – | – | 2 h | 4 h | 44 µM | 86900 nM | 86% | 1 | – | – | – | – | Hour 3 h | Time to first effect (first significant analgesic effect) ([2]; listed as capsaicin): 3 h |
| COc1cc(C2C(C(=O)OC3CCCC3)=C(C)NC3=C2C(=O)CC(c2ccc(OC)c(OC)c2)C3)ccc1O (stereo not drawn) [Compound 1] | ** (**p < 0.01) | ** (**p < 0.01) | *** (***p < 0.001) | **** (****p < 0.0001) | * (*p < 0.05) | *** (***p < 0.001) | *** (***p < 0.001) | *** (***p < 0.001) | *** (***p < 0.001) | 8 h | 3 h | 53 µM | 37700 nM | 83% | 0.8 | 53 ± 6 nM | ** (**p < 0.01) | ** (**p < 0.01) | ** (**p < 0.01) | – | Duration of significant analgesic effect ([2]; 10xEC50): 8 h; Time of first significant analgesic effect compared to vehicle ([2]; 10xEC50): 1 h; Analgesic effect relative to vehicle, significance of tactile thresholds (von Frey) ([2]; Time 1 h, x10 EC50): * (*p < 0.05); Analgesic effect relative to vehicle, significance of tactile thresholds (von Frey) ([2]; Time 1 h, x100 EC50): * (*p < 0.05); Analgesic effect relative to vehicle, significance of tactile thresholds (von Frey) ([2]; Time 2 h, x10 EC50): **** (****p < 0.0001); Analgesic effect relative to vehicle, significance of tactile thresholds (von Frey) ([2]; Time 3 h, x10 EC50): **** (****p < 0.0001); Analgesic effect relative to vehicle, significance of tactile thresholds (von Frey) ([2]; Time 3 h, x100 EC50): ** (**p < 0.01); Analgesic effect relative to vehicle, significance of tactile thresholds (von Frey) ([2]; Time 4 h, x10 EC50): *** (***p < 0.001); Analgesic effect relative to vehicle, significance of tactile thresholds (von Frey) ([2]; Time 5 h, x10 EC50): **** (****p < 0.0001); Analgesic effect relative to vehicle, significance of tactile thresholds (von Frey) ([2]; Time 5 h, x100 EC50): ** (**p < 0.01); Analgesic effect relative to vehicle, significance of tactile thresholds (von Frey) ([2]; Time 5 h, x1000 EC50): *** (***p < 0.001); Analgesic effect relative to vehicle, significance of tactile thresholds (von Frey) ([2]; Time 6 h, x10 EC50): ** (**p < 0.01); Analgesic effect relative to vehicle, significance of tactile thresholds (von Frey) ([2]; Time 6 h, x100 EC50): ** (**p < 0.01); Analgesic effect relative to vehicle, significance of tactile thresholds (von Frey) ([2]; Time 6 h, x1000 EC50): *** (***p < 0.001); Analgesic effect relative to vehicle, significance of tactile thresholds (von Frey) ([2]; Time 7 h, x10 EC50): ** (**p < 0.01); Analgesic effect relative to vehicle, significance of tactile thresholds (von Frey) ([2]; Time 8 h, x10 EC50): * (*p < 0.05); Duration of significant analgesic effect [2, 3]: ≥ 9 h; Time of first significant analgesic effect compared to vehicle [2, 3]: 1 h |
